Source: ChEMBL document CHEMBL1201862, “PubChem BioAssay data set” (2004)
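Tested at 5 concentrations; 48 h exposure; 96-well plates; endpoints linearly interpolated, else capped at highest concentration. Here, GI50 denotes the concentration required for 50% inhibition of growth.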 Active and inactive are the calls of the source. Cut-off read from the data, not from the text of the source: active = GI50 up to about 1.1 µM and inactive = higher.

Key:
Test in all cases: NCI tumour cell line growth inhibition, 48 h
[1] = system: ACHN
[2] = system: UACC-257
[3] = system: SNB-75
[4] = system: RPMI-8226
[5] = system: SW-620
[6] = system: KM12
[7] = system: HOP-62
[8] = system: COLO 205
[9] = system: SF-295
[10] = system: SN12C
[11] = system: SK-MEL-28
[12] = system: OVCAR-5
[13] = system: HT-29
[14] = system: NCI-H522
[15] = system: HOP-92
[16] = system: SNB-19
[17] = system: UO-31
[18] = system: EKVX
[19] = system: CAKI-1
[20] = system: HCT-15

SMILES | GI50 [1] | GI50 [2] | GI50 [3] | GI50 [4] | GI50 [5] | GI50 [6] | GI50 [7] | GI50 [8] | GI50 [9] | GI50 [10] | GI50 [11] | GI50 [12] | GI50 [13] | GI50 [14] | GI50 [15] | GI50 [16] | GI50 [17] | GI50 [18] | GI50 [19] | GI50 [20] [µM]
CCc1ccccc1NC(=O)C1=C(C)NC(C)=C(C(=O)Nc2ccccc2CC)C1c1cccc([N+](=O)[O-])c1 | 29.5 µM (inactive) | 33.2 µM (inactive) | 32.1 µM (inactive) | 11.7 µM (inactive) | 47.5 µM (inactive) | 32.8 µM (inactive) | 38.3 µM (inactive) | 34.7 µM (inactive) | 47.4 µM (inactive) | 70.6 µM (inactive) | 40.9 µM (inactive) | 41.5 µM (inactive) | 37.1 µM (inactive) | 22.2 µM (inactive) | 13.2 µM (inactive) | 59.4 µM (inactive) | 11.5 µM (inactive) | 34 µM (inactive) | 43.8 µM (inactive) | –
CC(NCc1c(O)ccc2ccc(=O)oc12)C(=O)O (configuration not stated) | > 100 µM (inactive) | > 100 µM (inactive) | > 100 µM (inactive) | > 100 µM (inactive) | > 100 µM (inactive) | > 100 µM (inactive) | > 100 µM (inactive) | > 100 µM (inactive) | > 100 µM (inactive) | > 100 µM (inactive) | > 100 µM (inactive) | > 100 µM (inactive) | > 100 µM (inactive) | > 100 µM (inactive) | > 100 µM (inactive) | > 100 µM (inactive) | > 100 µM (inactive) | > 100 µM (inactive) | > 100 µM (inactive) | > 100
O=C1c2ccccc2N1C(=O)c1ccccc1[N+](=O)[O-] | 78.9 µM (inactive) | > 100 µM (inactive) | 53.3 µM (inactive) | 64.4 µM (inactive) | > 100 µM (inactive) | 50 µM (inactive) | 45.4 µM (inactive) | 61.1 µM (inactive) | – | – | > 100 µM (inactive) | > 100 µM (inactive) | 88.1 µM (inactive) | 91.2 µM (inactive) | > 100 µM (inactive) | > 100 µM (inactive) | > 100 µM (inactive) | > 100 µM (inactive) | 92 µM (inactive) | 44.2
